Experimental findings from US20060252725A1, “Use of prebiotics for preventing or treating oxidation stress” (priority 2002, published 2006) are described below.

Structures are written as SMILES.

Common to all, as to assay type: in vivo, rat (Wistar-Han)
For experiment [1], the system named is lipid peroxidation. Description: Plasma TBARS in rats after 4 weeks of diet. The method, then: (§1) 40 weaned male rats of the Wistar-Han type (IFFA-CREDO; L'Arbresle, France) 6 week old and weighing approximately 150 g were used. The rats were placed in cages with a wire mesh back in a temperature-controlled room (22° C.) with day/night cycles of 12 hours. The animals were treated according to the recommendations of the INRA Ethics Committee, decree No. 87-848.
(§2) First of all the rats were fed following a semi-purified starch-based diet for 7 days: They were then randomly divided into 4 groups of 10 rats: one starch group (A), one fructose group (F), one starch+FOS group (A/FOS) and one fructose+FOS group (F/FOS). They then followed their appropriate diet for 4 weeks. […]
(§3) The FOS (Raftilose® P95) were obtained from ORAFTI, Thienen, Belgium. They were introduced into the food gradually in order to avoid diarrhoea which could occur in response to too rapid an administration of large quantities of this compound. […]
(§4) 4 days before sacrifice, the animals were housed individually in stainless steel cages with ad libitum access to the water and food. Urine-samples were recovered 24 hours before sacrifice in 50 ml graduated tubes, the volumes were precisely measured, the samples were then centrifuged and kept at −80° C. until analysis. […]
(§5) The levels of plasma TBARS were determined by spectrofluorometry on an LS 5 device (Perkin Elmer, Norwalk, Conn., USA). […]

Experiment [2] relates to lipid peroxidation. Description: Urinary TBARS in rats after 4 weeks of diet. The settings on record: diet for 4 weeks. As to the method: as §1, §2, §3, §4, §5
A further experiment concerns heart lipids. Description: Heart TBARS: susceptibility of heart lipids to FeSO4-ascorbate induced peroxidation. The settings on record: rats, diet for 4 weeks. As to the method: as §1, §2, §3, §4, §5
A short description of experiment [3]: Plasma triglyceride concentration in rats after 4 weeks of diet. To be noted: diet for 4 weeks, average of 10 animals ± standard deviation. As to the method: as §1
(§6) First of all the rats were fed following a semi-purified starch-based diet for 7 days: They were then randomly divided into 4 groups of 10 rats: one starch group (A), one fructose group (F), one starch+FOS group (A/FOS) and one fructose+FOS group (F/FOS). They then followed their appropriate diet for 4 weeks.
(§7) The food and distilled water were provided ad libitum. The composition of the food rations was as follows (in g/kg):
as §3, §4

Experiment [4] in a line: Plasma vitamin E concentration and vitamin E/triglycerides ratio in rats after 4 weeks of diet. The settings on record: diet for 4 weeks. As to the method: as §1, §6, §7
The FOS (Raftilose® P95) were obtained from ORAFTI, Thienen, Belgium. They were introduced into the food gradually in order to avoid diarrhoea which could occur in response to too rapid an administration of large quantities of this compound. Raftilose® P95 is a mixture of Glucosyl-(Fructosyl)n-Fructose (64%) and of (Fructosyl)m-Fructose (36%) with average degrees of polymerization of 4.8.
4 days before sacrifice, the animals were housed individually in stainless steel cages with ad libitum access to the water and food. Urine-samples were recovered 24 hours before sacrifice in 50 ml graduated tubes, the volumes were precisely measured, the samples were then centrifuged and kept at −80° C. until analysis. At the time of sacrifice the rats were weighed, then anesthetized using sodium pentobarbital (intra-peritoneal injection at 40 mg/kg) and killed. […]
The plasma concentrations of vitamin E were determined by reversed-phase high performance liquid chromatography on a Kontron series 400 device (Kontron St Quentin en Yvelines, France) using a hexane extract. α-tocopherol acetate (Sigma) was added to the samples as internal control. […] The compounds were detected by UV (292 nm) then quantified with internal and external calibrations using control solutions.

Setting [5] is: Fructose vs Starch group, Fructose+FOS vs Fructose group.

Turning to `O=C(CO)[C@@H](O)[C@H](O)[C@H](O)CO` [Fructose], in the experiment with lipid peroxidation [1] (diet ad libitum for 4 weeks, FOS 100 g/kg diet, sugar 650 or 550 g/kg, average of 10 animals ± standard deviation), the “Plasma TBARS” value worked out at 2.14 ± 0.07 nmol/mL. For the same compound, the “Plasma TBARS, comparison between diet groups” value with lipid peroxidation [1] (diet for 4 weeks, Fructose vs Starch group, Fructose+FOS vs Fructose group) is recorded as “significantly higher”. Besides, the “Urinary TBARS, comparison between diet groups” value in the experiment on lipid peroxidation [2] (setting [5]) is reported as “significantly higher”. Besides, the “Urinary TBARS” value in the experiment with lipid peroxidation [2] (urine of 24 hours, average of 10 animals ± standard deviation) was 21.97 ± 1.58 nmol/24 h. Also, the “Heart TBARS, comparison between diet groups” value with heart lipids (setting [5]) is listed as “significantly higher”. Also, in the experiment on heart lipids (heart homogenate, FeSO4 (2 μmol/l)-ascorbate (50 μmol/l), 30 minutes at 37° C., average of 10 animals ± standard deviation), the “Heart TBARS” value is 98.8 ± 6.5 nmol/g of fresh weight. In experiment [3], this compound gave a Triglycerides (TG) of 3.73 ± 0.45 mM. Also, the “Ratio Vitamin E/TG, effect of the diet” value in experiment [4] (diet rich in fructose vs starch diet, supplementation with FOS) is “lowers the ratio Vitamin E/TG”. Moreover, the Vitamin E/TG in experiment [4] (plasma ratio, average of 10 animals ± standard deviation) was 2.68 ± 0.12 µg/µmol. Moreover, the “Vitamin E” value in experiment [4] (plasma, average of 10 animals ± standard deviation) was found to be 9.74 ± 0.92 µg/mL.
